Assay results taken from patent US20180243421A1, “IMMUNOSTIMULATING AGENT” (AJINOMOTO CO., INC., priority 2015, published 2018).

Legend:
[1] = system: anti-OVA-specific IgG1 subclass antibody; assay: Adjuvant activity: anti-OVA-specific IgG1 subclass antibody in serum after secondary immunization (Examples 1, 5, 7, 8; ELISA absorbance); type: in vivo, BALB/c mice
Procedure: Two weeks from the secondary immunization, the whole blood was extracted under anesthesia, and the obtained serum sample was measured for anti-OVA-specific IgG1 subclass antibody.
A method for measurement of the anti-OVA-specific IgG1 subclass antibody in Example 1, and the following Examples 5, 7 and 8 is as follows.
Measurement Method of anti-OVA-specific IgG1 Subclass Antibody
To a 96 well plate was added 5 μg/ml OVA at 100 μl/well, and the mixture was incubated at 4° C. overnight. After incubation, the mixture was washed three times with 200 μl of PBS-T (PBS+0.05%(v/v) Tween 20) per well, and blocked with 100 μl of 5% FCS/PBS solution per well at room temperature for 1 to 2 hr. Thereafter, the mixture was washed three times with PBS-T (200 μl/well), a diluted serum sample (100 μl/well) or the same amount of 5% FCS/PBS solution as a control was added, and the mixture was incubated at 37° C. for 1 hr. Thereafter, the mixture was washed five times with PBS-T (200 μl/well), a diluted biotinylated anti-mouse IgG1 antibody (100 μl/well) was added, and the mixture was incubated at 37° C. for 45 min. Thereafter, the mixture was washed five times with PBS-T (200 μl/well), a diluted anti-biotin-HRP antibody was added (100 μl/well), and the mixture was incubated at 37° C. for another 30 min. Thereafter, the mixture was washed five times with PBS-T (200 μl/well), TMB substrate solution was added (100 μl/well), and the mixture was incubated at room temperature for 10 to 15 min. Thereafter, a reaction quenching liquid (2N sulfuric acid solution) was added (50 μl/well) to discontinue a color developing reaction, and the absorbance (OD Value=450 nm) was measured by a microplate reader.

[2] = system: anti-OVA-specific IgE antibody; details: mouse, in vivo
Procedure: The serum sample obtained in Example 1 was measured for an anti-OVA-specific IgE antibody. The measurement method of the anti-OVA-specific IgE antibody in Example 3 and Examples 6, 9 is as follows.
Measurement Method of anti-OVA-specific IgE Antibody
DS mouse IgE ELISA (OVA) kit manufactured by DS Pharma Biomedical Co., Ltd. was used. The protocol is briefly shown below.
The serum sample and a standard reagent for drawing an analytical curve are diluted with a buffer and, after stirring, left standing at room temperature for 10 min. The sample and the standard solution are added to a plate bound with an IgE capture antibody in advance and, after stirring, the mixture is left standing at room temperature for 60 min. The mixture is washed three times with wash, HRP-labeled OVA is added, and the mixture is left standing at room temperature for 30 min. The mixture is washed three times with wash, a substrate solution is added, and the mixture is left standing in dark at room temperature for 30 min. A reaction quenching liquid is added, the mixture is stirred, and the absorbance (OD Value=450 nm) is immediately measured.
This test was performed in the same manner as in Example 3 except that N^2-hexadecanoyl-L-arginine (SZ61), N-hexadecanoylagmatine (SZ62), N^2-hexadecanoyl-L-arginine methyl ester hydrochloride (SZ63), N^2-octadecanoyl-L-glutamine tert-butyl ester (SZ64), and N^2-octadecanoyl-L-glutamine (SZ65) were used.
This test was performed in the same manner as in Example 6 except that N-hexadecanoylagmatine (SZ62), N^2-octadecanoyl-L-glutamine tert-butyl ester (SZ64), N-docosanoyl-L-leucine methyl ester (SZ70), and N-docosanoyl-L-phenylalanine methyl ester (SZ71) were used and a positive control adjuvant Addavax™ (InvivoGen) administration group was formed.
The allergy inducing activity test was performed in the same manner as in Example 3 except that Addavax™, N-(2-octadecyleicosanoyl)-L-leucine methyl ester (SZ86), N-hexadecanoyl-L-leucinamide (SZ90), N^2-hexadecanoyl-N^1,N^1-diethyl-L-leucinamide (SZ92), N^2-hexadecanoyl-L-arginine hexyl ester hydrochloride (SZ99) and N^2-docosanoyl-N^1,N^1-diethyl-L-glutamic acid 1-amide (SZ106) were used.
The allergy inducing activity test was performed in the same manner as in Example 3 except that Addavax™, N-(2-octadecyleicosanoyl)-L-leucine methyl ester (SZ86), N-hexadecanoyl-L-leucinamide (SZ90), N^2-hexadecanoyl-N^1,N^1-diethyl-L-leucinamide (SZ92), N-hexadecanoyl-L-leucine hexyl ester (SZ97), N^2-docosanoyl-N^1,N^1-diethyl-L-glutamic acid 1-amide (SZ106) and N-docosanoylagmatine hydrochloride (SZ108) were used.
8-Week-old female BALB/c mice were divided into groups (N=6), and each group was primarily immunized by dorsal-subcutaneous administration of (1) ovalbumin (OVA) (5 μg) dissolved in saline as an antigen (OVA single administration group), (2) OVA (10 μg) and aluminum hydroxide salt dissolved in saline (Alum administration group), (3) OVA 10 μg and Addavax™ (mixed with saline at 1:1) dissolved in saline (Addavax™ administration group), (4) OVA 10 μg and CpG 5 μg dissolved in saline (CpG administration group), (5) OVA 10 μg and MPL 5 μg dissolved in saline (MPL administration group), (6) OVA (5 μg) and SZ62 (0.256 μmol) dissolved or dispersed in 5% αCD-added saline (SZ62 administration group), (7) OVA (5 μg), SZ62 (0.256 μmol) and CpG 5 μg dissolved or dispersed in 5% αCD-added saline (SZ62+CpG administration group), (8) OVA 10 μg, Addavax™ (mixed with saline at 1:1) and CpG 5 μg dissolved in saline (Addavax™+CpG administration group), (9) OVA (5 μg), SZ62 (0.256 μmol) and MPL 5 μg dissolved or dispersed in 5% αCD-added saline (SZ62+MPL administration group), (10) OVA (10 μg), aluminum hydroxide salt (Alum) and MPL 5 μg dissolved in saline (Alum+MPL administration group), each per mouse. One week later, the secondary immunization was carried out by dorsal-subcutaneous administration of solutions or dispersions similar to those of the above-mentioned (1) to (10) again.

[3] = system: anti-OVA-specific IgG1 subclass antibody; assay: Adjuvant activity after primary immunization: anti-OVA-specific IgG1 subclass antibody in serum (Examples 13-18); type: in vivo, BALB/c mice; details: OVA 5 μg + 0.256 μmol in 5% αCD saline s.c., serum after 12 days; for anti-OVA-specific IgG1 subclass antibody production after primary immunization: Example 13
Procedure: 8-Week-old female BALB/c mice were divided into groups (N=6), and each group was primarily immunized by dorsal-subcutaneous administration of (1) ovalbumin (OVA) (5 μg) dissolved in saline as an antigen (OVA single administration group), (2) OVA (5 μg) and SZ83 (0.256 μmol) dissolved or dispersed in 5% αCD-added saline (SZ83 administration group), (3) OVA (5 μg) and SZ84 (0.256 μmol) dissolved or dispersed in 5% αCD-added saline (SZ84 administration group), (4) OVA (5 μg) and SZ86 (0.256 μmol) dissolved or dispersed in 5% αCD-added saline (SZ86 administration group), (5) OVA (5 μg) and SZ89 (0.256 μmol) dissolved or dispersed in 5% αCD-added saline (SZ89 administration group), (6) OVA (5 μg) and SZ90 (0.256 μmol) dissolved or dispersed in 5% αCD-added saline (SZ90 administration group), each per mouse. After 12 days, blood samples were collected under anesthesia, and the obtained serum samples were subjected to the measurement of an anti-OVA-specific IgG1 subclass antibody.
Measurement Method of Concentration of anti-OVA-specific IgG1 Subclass Antibody and anti-OVA-specific IgG2a Subclass Antibody
To a 96 well plate was added 5 μg/ml OVA at 100 μl/well, and the mixture was incubated at 4° C. overnight. After incubation, the mixture was washed three times with 200 μl of PBS-T (PBS+0.05% (v/v) Tween 20) per well, and blocked with 100 μl of 5% FCS/PBS solution per well at room temperature for 1 to for 2 hr. Thereafter, the mixture was washed three times with PBS-T (200 μl/well), a diluted serum sample (100 μl/well) or the same amount of 5% FCS/PBS solution as a control was added, to and the mixture was incubated at 37° C. for 1 hr. To calculate concentration of the antibody, the standard of an anti-OVA-specific IgG1 subclass antibody diluted with 2% FCS/PBS solution was added at 100 ng/ml, 50 ng/ml, 25 ng/ml, 12.5 ng/ml, 6.25 ng/ml, 3.125 ng/ml, 1.56 ng/ml, 0.781 ng/ml, 0.391 ng/ml, 0.195 ng/ml, 0.098 ng/ml, 0 ng/ml, per 1 well. When an anti-OVA-specific IgG2a subclass antibody was measured, the standard of an anti-OVA-specific IgG2a subclass antibody was added at 50 ng/ml, 25 ng/ml, 12,5 ng/ml, 6.25 ng/ml, 3.125 ng/ml, 1.56 ng/ml, 0.781 ng/ml, 0.391 ng/ml, 0.195 ng/ml, 0.098 ng/ml, 0.049 ng/ml, 0 ng/ml, per 1 well. […] Thereafter, the mixture was washed five times with PBS-T (200 μl/well), a diluted anti-biotin-HRP antibody was added (100 μl/well), and the mixture was incubated at 37° C. for another 30 min. Thereafter, the mixture was washed five times with PBS-T (200 μl/well), TMB substrate solution was added (100 μl/well), and the mixture was incubated at room temperature for 10- for 15 min. Thereafter, a reaction quenching liquid (2N sulfuric acid solution) was added (50 μl/well) to discontinue a color developing reaction, and the absorbance (OD Value=450 nm) was measured by a microplate reader. A standard curve was drawn from the measured OD values, and the concentration was calculated.
8-Week-old female BALB/c mice were divided into groups (N=6), and each group was primarily immunized by dorsal-subcutaneous administration of (1) ovalbumin (OVA) (5 μg) dissolved in saline as an antigen (OVA single administration group), (2) OVA (5 μg) and SZ92 (0.256 μmol) dissolved or dispersed in 5% αCD-added saline (SZ92 administration group), (3) OVA (5 μg) and SZ94 (0.256 μmol) dissolved or dispersed in 5% αCD-added saline (SZ94 administration group), (4) OVA (5 μg) and SZ95 (0.256 μmol) dissolved or dispersed in 5% αCD-added saline (SZ95 administration group), (5) OVA (5 μg) and SZ96 (0.256 μmol) dissolved or dispersed in 5% αCD-added saline (SZ96 administration group), each per mouse. After 12 days, blood samples were collected under anesthesia, and the obtained serum samples were subjected to the measurement of anti-OVA-specific IgG1 subclass antibody.

`CCCCCCCCCCCCCCCCCC(=O)N[C@@H](CCC(N)=O)C(=O)O` [SZ65, N^2-octadecanoyl-L-glutamine] was tested, and the “adjuvant activity (IgG1) compared with Alum” value ([1]; Example 5) was “equivalent to or not less than that of Alum”, the “anti-OVA-specific IgG1 subclass antibody production as compared to the OVA single administration group” value ([1]; Example 5, same manner as Example 1) was “significantly increased” and the “allergy inducing activity as compared to aluminum hydroxide gel adjuvant” value [2] was “lower allergy inducing activity”. The “anti-OVA-specific IgE antibody production as compared to the OVA single administration group” value [2] was “a significant increase in the anti-OVA-specific IgE antibody production was not observed”.

With `CCCCCCCCCCCCCCCCCCCCCC(=O)N[C@@H](Cc1ccccc1)C(=O)OC` [SZ71, N-docosanoyl-L-phenylalanine methyl ester] the “adjuvant activity (IgG1) compared with Alum” value ([1]; Example 7) was “equivalent to or not less than that of Alum”, the “anti-OVA-specific IgG1 subclass antibody production compared with Alum” value ([1]; Example 7) was “equivalent to or not less than that of Alum” and the “anti-OVA-specific IgG1 subclass antibody production as compared to the OVA single administration group” value ([1]; Example 7, same manner as Example 1, plus Addavax group) was “a significant difference was not found”. The “allergy inducing activity as compared to aluminum hydroxide gel adjuvant and Addavax” value [2] was “lower allergy inducing activity”.

For `COC(=O)[C@H](CC(C)C)NC(C)=O` [SZ83, N-acetyl-L-leucine methyl ester], the “anti-OVA-specific IgG1 subclass antibody production after primary immunization” value [3] was “show a tendency to increase”.

In the case of `CCCCCC(=O)N[C@@H](CC(C)C)C(=O)OC` [SZ84, N-hexanoyl-L-leucine methyl ester], the “anti-OVA-specific IgG1 subclass antibody production after primary immunization” value [3] is reported as “show a tendency to increase”.

`CCCCCCCCCCCCCCCC(=O)N[C@@H](CC(C)C)C(=O)OC(C)(C)C` [SZ89, N-hexadecanoyl-L-leucine tert-butyl ester] was tested, and the “anti-OVA-specific IgG1 subclass antibody production after primary immunization” value [3] was “show a tendency to increase”.

With `CCCCCCCCCCCCCCCC(=O)N[C@@H](Cc1c[nH]cn1)C(=O)OC` [SZ94, N-hexadecanoyl-L-histidine methyl ester] the “anti-OVA-specific IgG1 subclass antibody production after primary immunization as compared to the OVA single administration group” value ([3]; Example 14) was “tended to increase”.

`CCCCCCCCCCCCCCCC(=O)N1CCC[C@H]1C(=O)OC` [SZ95, N-hexadecanoyl-L-proline methyl ester] was tested, and the “anti-OVA-specific IgG1 subclass antibody production after primary immunization as compared to the OVA single administration group” value ([3]; Example 14) was “tended to increase”.

`CCCCCCCCCCCCCCCC(=O)N[C@@H](CO)C(=O)OC` [SZ96, N-hexadecanoyl-L-serine methyl ester] was tested, and the “anti-OVA-specific IgG1 subclass antibody production after primary immunization as compared to the OVA single administration group” value ([3]; Example 14) was “tended to increase”.

`CCCCCCCCCCCCCCCC(=O)N[C@@H](CCCNC(=N)N)C(=O)N(CC)CC.Cl` [SZ110, N^2-hexadecanoyl-N^1,N^1-diethyl-L-arginine amide hydrochloride salt] was tested, and the “anti-OVA-specific IgG1 subclass antibody production after primary immunization as compared to the OVA single administration group” value ([3]; Example 16) was “tended to increase”.
